# From patent US20010027213A1, “Use of pyrethroid compounds to promote hair growth” (priority 1998, published 2001)
# Tested on: C3H strain mice
# Experiment: Hair growth on clipped back skin, repeat with minoxidil control, Example 5
# Assay type: in vivo
# Parameters: Level of hair growth (unaided visual inspection): scale not given here
# Settings: 5%
# Method: The ability of topical administration of pyrethroid compounds to promote hair growth was assessed in female C3H strain mice (10 weeks old; n=5/group). Hair on the back skin of the mice was clipped carefully with an electric clipper. 5 μL/cm^2 of the five compositions tested in the examples above were applied to the mice daily. The level of hair growth at the applied skin areas were evaluated by unaided visual inspection at the indicated time. Cyclosporin A was used as a control.
# The experiment described in Example 4 was repeated with a commercially available hair growth-promoting compound (5% minoxidil) as a control.
compound,measurement,setting,value
"Nc1cc(N2CCCCC2)nc(N)[n+]1[O-] [Minoxidil, minoxidil]",Level of hair growth (unaided visual inspection),Week 1,0
same,Level of hair growth (unaided visual inspection),Week 2,0
same,Level of hair growth (unaided visual inspection),Week 3,2
same,Level of hair growth (unaided visual inspection),Week 4,3
same,Level of hair growth (unaided visual inspection),Week 5,4
same,Level of hair growth (unaided visual inspection),Week 6,4
